Where no end group is shown, it is not given here.
System: Stahylococcus aureus ATCC 12600
Assay: micro-dilution assay (MBC, LD90)
Type: cell-based, Staphylococcus aureus
Method: The anti-bacterial activity of hβD2 was tested by a micro-dilution assay. Bacteria and fungi were streaked from a glycerol stock onto a Brain Heart Infusion (BHI) agar plate (3.7% w/v BHI Bouillon, 1.5% w/v Agar), grown overnight at 37° C. and 30° C., respectively and subsequently used to inoculate 40 ml of 3.7% w/v BHI Bouillon without any antibiotics in 100 ml flasks. Fresh cells were harvested by centrifugation at 16000 rpm for 10 min and washed twice with 10 mM sodium phosphate buffer, pH 7.2. The optical density was adjusted to 10^4 cells/ml. For anti-bacterial testing hβD2 was incubated in one well of a microtiter plate containing 100 μl of the bacterial suspension. Therefore, ten microlitres of hβD2 solution with a range of final concentrations tested from 0.0125 up to and including 100 mg/l was added to the bacterial suspension and incubated at 37° C. and 30° C., respectively for 2 h before colony forming units were determined. Colony forming units (CFU) were determined after plating 100 μl of a 1:100 dilution of the bacterial suspension on petri dishes with BHI medium and incubating them overnight at 37° C. For every group of the hβD2 added samples and the controls, 5 independent anti-bacterial assays were performed. A control (NC) of bacterial growth was examined for every independent assay. […]

## human β-defensin-2 (GIGDPVTCLKSGAICHPVFCPRRYKQIGTCGLPGTKCCKKP; ends and bridges not checked; cysteine pairing not given here) [hβD2, recombinant hβD2]
  LD 90 = μg/ml 90% killing: 25 µg/mL
  MBC = μg/ml 99.9% killing: 100 µg/mL

— patent US20110311601A1, “ANTIMICROBIAL MEDICAL DEVICES” (priority 2010, published 2011)
